From ChEMBL document CHEMBL4257522, “Synthesis and preliminary anti-inflammatory and anti-bacterial evaluation of some diflunisal aza-analogs” (Medchemcomm, 2018)
Calls of active or inactive are those of the source.

Key:
Pseudomonas aeruginosa [1] = experiment: Potentiation of methicillin-induced antibacterial activity against Pseudomonas aeruginosa ATCC BAA-2108 assessed as minimum modulatory concentration up to 32 uM measured after 16 hrs in presence of MIC/4 methicillin; type: functional; settings: ATCC BAA-2108, 16 h, read-out: MEC
Enterococcus faecium [2] = experiment: Potentiation of methicillin-induced antibacterial activity against Enterococcus faecium ATCC 700221 assessed as minimum modulatory concentration up to 32 uM measured after 16 hrs in presence of MIC/4 methicillin; type: functional; settings: ATCC 700221, 16 h, read-out: MEC
Pseudomonas aeruginosa [3] = experiment: Potentiation of ciprofloxacin-induced antibacterial activity against Pseudomonas aeruginosa ATCC BAA-2108 assessed as minimum modulatory concentration up to 32 uM measured after 16 hrs in presence of MIC/4 ciprofloxacin; type: functional; settings: ATCC BAA-2108, 16 h, read-out: MEC
Escherichia coli [4] = experiment: Toxicity in Escherichia coli ATCC 43894 up to 32 uM measured after 16 hrs; type: organism-based
Streptococcus pyogenes [5] = experiment: Potentiation of ciprofloxacin-induced antibacterial activity against Streptococcus pyogenes ATCC 14289 assessed as minimum modulatory concentration up to 32 uM measured after 16 hrs in presence of MIC/4 ciprofloxacin; type: functional; settings: ATCC 14289, 16 h, read-out: MEC
Escherichia coli [6] = experiment: Potentiation of ciprofloxacin-induced antibacterial activity against Escherichia coli ATCC 43894 assessed as minimum modulatory concentration up to 32 uM measured after 16 hrs in presence of MIC/4 ciprofloxacin; type: functional; settings: ATCC 43894, 16 h, read-out: MEC
Enterococcus faecium [7] = experiment: Potentiation of geneticin-induced antibacterial activity against Enterococcus faecium ATCC 700221 assessed as minimum modulatory concentration up to 32 uM measured after 16 hrs in presence of MIC/4 geneticin; type: functional; settings: ATCC 700221, 16 h, read-out: MEC
Macrophage cell line [8] = experiment: Antiinflammatory activity in human PBMC-differentiated macrophages assessed as inhibition of LPS-induced prostaglandin production at 0.01 to 10 uM measured after 24 hrs by ELISA; type: functional, cell-based
Klebsiella pneumoniae [9] = experiment: Toxicity in Klebsiella pneumoniae ATCC 13883 up to 32 uM measured after 16 hrs; type: organism-based
Pseudomonas aeruginosa [10] = experiment: Toxicity in Pseudomonas aeruginosa ATCC BAA-2108 up to 32 uM measured after 16 hrs; type: organism-based; settings: in vitro
Staphylococcus aureus [11] = experiment: Potentiation of erythromycin-induced antibacterial activity against Staphylococcus aureus ATCC 33592 assessed as minimum modulatory concentration up to 32 uM measured after 16 hrs in presence of MIC/4 erythromycin; type: functional; settings: ATCC 33592, 16 h, read-out: MEC
Enterococcus faecium [12] = experiment: Toxicity in Enterococcus faecium ATCC 700221 up to 32 uM measured after 16 hrs; type: organism-based; settings: in vitro
Escherichia coli [13] = experiment: Potentiation of geneticin-induced antibacterial activity against Escherichia coli ATCC 43894 assessed as minimum modulatory concentration up to 32 uM measured after 16 hrs in presence of MIC/4 geneticin; type: functional; settings: ATCC 43894, 16 h, read-out: MEC
Enterococcus faecium [14] = experiment: Potentiation of erythromycin-induced antibacterial activity against Enterococcus faecium ATCC 700221 assessed as minimum modulatory concentration up to 32 uM measured after 16 hrs in presence of MIC/4 erythromycin; type: functional; settings: ATCC 700221, 16 h, read-out: MEC
Pseudomonas aeruginosa [15] = experiment: Potentiation of tetracycline-induced antibacterial activity against Pseudomonas aeruginosa ATCC BAA-2108 assessed as minimum modulatory concentration up to 32 uM measured after 16 hrs in presence of MIC/4 tetracycline; type: functional; settings: ATCC BAA-2108, 16 h, read-out: MEC
Enterococcus faecium [16] = experiment: Potentiation of ciprofloxacin-induced antibacterial activity against Enterococcus faecium ATCC 700221 assessed as minimum modulatory concentration up to 32 uM measured after 16 hrs in presence of MIC/4 ciprofloxacin; type: functional; settings: ATCC 700221, 16 h, read-out: MEC
Escherichia coli [17] = experiment: Potentiation of methicillin-induced antibacterial activity against Escherichia coli ATCC 43894 assessed as minimum modulatory concentration up to 32 uM measured after 16 hrs in presence of MIC/4 methicillin; type: functional; settings: ATCC 43894, 16 h, read-out: MEC
Streptococcus pyogenes [18] = experiment: Potentiation of geneticin-induced antibacterial activity against Streptococcus pyogenes ATCC 14289 assessed as minimum modulatory concentration up to 32 uM measured after 16 hrs in presence of MIC/4 geneticin; type: functional; settings: ATCC 14289, 16 h, read-out: MEC
Pseudomonas aeruginosa [19] = experiment: Potentiation of erythromycin-induced antibacterial activity against Pseudomonas aeruginosa ATCC BAA-2108 assessed as minimum modulatory concentration up to 32 uM measured after 16 hrs in presence of MIC/4 erythromycin; type: functional; settings: ATCC BAA-2108, 16 h, read-out: MEC
Pseudomonas aeruginosa [20] = experiment: Potentiation of geneticin-induced antibacterial activity against Pseudomonas aeruginosa ATCC BAA-2108 assessed as minimum modulatory concentration up to 32 uM measured after 16 hrs in presence of MIC/4 geneticin; type: functional; settings: ATCC BAA-2108, 16 h, read-out: MEC
Klebsiella pneumoniae [21] = experiment: Potentiation of tetracycline-induced antibacterial activity against Klebsiella pneumoniae ATCC 13883 assessed as minimum modulatory concentration up to 32 uM measured after 16 hrs in presence of MIC/4 tetracycline; type: functional; settings: ATCC 13883, 16 h, read-out: MEC
Macrophage cell line [22] = experiment: Cytotoxicity against human PBMC-differentiated macrophages treated for 24 hrs followed by compound washout and measured after 48 hrs by MTT assay; type: cell-based
Staphylococcus aureus [23] = experiment: Potentiation of geneticin-induced antibacterial activity against Staphylococcus aureus ATCC 33592 assessed as minimum modulatory concentration up to 32 uM measured after 16 hrs in presence of MIC/4 geneticin; type: functional; settings: ATCC 33592, 16 h, read-out: MEC
Klebsiella pneumoniae [24] = experiment: Potentiation of erythromycin-induced antibacterial activity against Klebsiella pneumoniae ATCC 13883 assessed as minimum modulatory concentration up to 32 uM measured after 16 hrs in presence of MIC/4 erythromycin; type: functional; settings: ATCC 13883, 16 h, read-out: MEC
Escherichia coli [25] = experiment: Potentiation of tetracycline-induced antibacterial activity against Escherichia coli ATCC 43894 assessed as minimum modulatory concentration up to 32 uM measured after 16 hrs in presence of MIC/4 tetracycline; type: functional; settings: ATCC 43894, 16 h, read-out: MEC
Staphylococcus aureus [26] = experiment: Potentiation of ciprofloxacin-induced antibacterial activity against Staphylococcus aureus ATCC 33592 assessed as minimum modulatory concentration up to 32 uM measured after 16 hrs in presence of MIC/4 ciprofloxacin; type: functional; settings: ATCC 33592, 16 h, read-out: MEC
Klebsiella pneumoniae [27] = experiment: Potentiation of ciprofloxacin-induced antibacterial activity against Klebsiella pneumoniae ATCC 13883 assessed as minimum modulatory concentration up to 32 uM measured after 16 hrs in presence of MIC/4 ciprofloxacin; type: functional; settings: ATCC 13883, 16 h, read-out: MEC
Macrophage cell line [28] = experiment: Antiinflammatory activity in human PBMC-differentiated macrophages assessed as inhibition of LPS-induced IL-8 production at 0.01 to 10 uM measured after 24 hrs by ELISA; type: functional, cell-based
Macrophage cell line [29] = experiment: Induction of prostaglandin production in human PBMC-differentiated macrophages after 24 hrs by ELISA; type: cell-based
Macrophage cell line [30] = experiment: Induction of IL-1beta production in human PBMC-differentiated macrophages after 24 hrs by ELISA; type: cell-based
Streptococcus pyogenes [31] = experiment: Potentiation of erythromycin-induced antibacterial activity against Streptococcus pyogenes ATCC 14289 assessed as minimum modulatory concentration up to 32 uM measured after 16 hrs in presence of MIC/4 erythromycin; type: functional; settings: ATCC 14289, 16 h, read-out: MEC
Macrophage cell line [32] = experiment: Induction of TNFalpha production in human PBMC-differentiated macrophages after 24 hrs by ELISA; type: cell-based
Streptococcus pyogenes [33] = experiment: Potentiation of methicillin-induced antibacterial activity against Streptococcus pyogenes ATCC 14289 assessed as minimum modulatory concentration up to 32 uM measured after 16 hrs in presence of MIC/4 methicillin; type: functional; settings: ATCC 14289, 16 h, read-out: MEC

O=C(O)c1cc(-c2ccccc2)ncc1O
inactive: inhibition (Macrophage cell line [8]) | inhibition (Macrophage cell line [28])
Non-Toxic: Activity (Escherichia coli [4]) | Activity (Klebsiella pneumoniae [9]) | Activity (Pseudomonas aeruginosa [10]) | Activity (Enterococcus faecium [12]) | Activity (Macrophage cell line [29]) | Activity (Macrophage cell line [30]) | Activity (Macrophage cell line [32])
84.5 µM: IC50 (Macrophage cell line [22])
16 µM: minimal effective concentration (Streptococcus pyogenes [18]) | minimal effective concentration (Staphylococcus aureus [26]) | minimal effective concentration (Streptococcus pyogenes [33])
> 32 µM: minimal effective concentration (Pseudomonas aeruginosa [1]) | minimal effective concentration (Enterococcus faecium [2]) | minimal effective concentration (Pseudomonas aeruginosa [3]) | minimal effective concentration (Streptococcus pyogenes [5]) | minimal effective concentration (Escherichia coli [6]) | minimal effective concentration (Enterococcus faecium [7]) | minimal effective concentration (Staphylococcus aureus [11]) | minimal effective concentration (Escherichia coli [13]) | minimal effective concentration (Enterococcus faecium [14]) | minimal effective concentration (Pseudomonas aeruginosa [15]) | minimal effective concentration (Enterococcus faecium [16]) | minimal effective concentration (Escherichia coli [17]) | minimal effective concentration (Pseudomonas aeruginosa [19]) | minimal effective concentration (Pseudomonas aeruginosa [20]) | minimal effective concentration (Klebsiella pneumoniae [21]) | minimal effective concentration (Staphylococcus aureus [23]) | minimal effective concentration (Klebsiella pneumoniae [24]) | minimal effective concentration (Escherichia coli [25]) | minimal effective concentration (Klebsiella pneumoniae [27]) | minimal effective concentration (Streptococcus pyogenes [31])
